Values of other authors as cited in patent US12134602B2 (Yale University, priority 2011, dated 2024).

Details: in vivo

Question: For `C/C=C1\[C@H]2C=C(C)C[C@]1(N)c1ccc(=O)[nH]c1C2` [(−)-Huperzine A, (−)-huperzine A], which tolerability is on record?
Answer: well tolerated
